Data reported in patent US12213479B2, “Monoterpenoid/phenylpropanoid-containing compounds and methods of their making and use as herbicides” (KITTRICH CORPORATION, priority 2016, dated 2025).

Tests used:
[1] = test system: Waterhemp (Amaranthus tuberculatus); assay: Toxicity assay (probit LC50), waterhemp; type: in vivo
Text: (§1) Waterhemp seeds were obtained from the Department of Agronomy at Iowa State University. Individual seeds were sown for each pot (1.5″ wide×3″ deep) with approximately 7.5 g of soil for each plot. Five seeds/plot was sown into numerous plots. After one month of germination, germinated plants were counted in each plot and this number was used for the total number of plants challenged per plot in the toxicity assessment.
(§2) The total number of plants were counted in each plot in 24×6 hexagonal small plot planter tray. The number of germinated seeds in each plot was enumerated after one month, and for each plot this number was recorded and used as the total for each plot. Differing concentrations of thymyloxyacetic acid was applied in 5% Triton-X 100 and 1:1 molar ratio potassium hydroxide:thymyloxyacetic acid to aid in the solubility of the compound in water. Ten mL of solution was applied to each plot, and the mortality of the plants was assessed at 3 days and 2 weeks post application (for some treatments). Mortality at these time points were enumerated out of the total plants germinated in each plot at the beginning of the assay. At both time points, the total number of dead plants and total number of plants at the beginning of the assay were recorded for each observation. A Probit model was used to calculate the LC50 values for each of the compounds explored in this assay. A formulation control (with no active ingredient) was screened against a number of plants and factored into the final probit model. This formulation control had little-to-no effect by itself.

[2] = test system: various dicot weed species; assay: Selectivity assessment, dicot weed species compared to bluegrass; type: in vivo; conditions: range over various weed species
Text: as §1, with “Kentucky bluegrass” for “Waterhemp”, “purchased in a bag under” for “obtained from”, “commercial name of.” for “Department of Agronomy at Iowa State University.”, “10” for “Five”
as §2, with “A formulation control (with no active ingredient) was screened against a number of plants and factored into the final probit model. This formulation control had little-to-no effect by itself.” left out

Structure (SMILES): Cc1ccc(C(C)C)c(OCC(=O)O)c1 [thymyloxyacetic acid, 2-(2-isopropyl-5-methylphenoxy)acetic acid]
- LC50 Value ([1]; Waterhemp): 700 ppm
- Selective Toxicity Compared to Bluegrass ([1]; Waterhemp compared to bluegrass): 5
- selectivity ratio compared to a blue grass species [2]: 2.06-5 fold
